According to the supplement of paper PMC8967900:

Assays:
Experiment in all cases: selective drug sensitivity score (sDSS, relative to normal bone marrow) (sDSS (score)); higher = more potent and effective on the cell line relative to normal bone marrow cells
Settings in all cases: 72 h
DND-41 = test system: DND-41
LC4-1 = test system: LC4-1
P12-ICHIKAWA = test system: P12-ICHIKAWA
NALM-16 = test system: NALM-16
HAL-01 = test system: HAL-01
RCH-ACV = test system: RCH-ACV
MOLT-4 = test system: MOLT-4
RPMI-8402 = test system: RPMI-8402
COG-LL-332h = test system: COG-LL-332h
SEM cells = test system: SEM cells
NALL-1 = test system: NALL-1
CCRF-CEM = test system: CCRF-CEM
JURKAT = test system: JURKAT
TMD5 = test system: TMD5
COG-LL-402h = test system: COG-LL-402h
KASUMI-9 = test system: KASUMI-9
ALL-SIL = test system: ALL-SIL
COG-LL-394h = test system: COG-LL-394h
MHH-CALL-2 = test system: MHH-CALL-2
CCRF-HSB2 = test system: CCRF-HSB2
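Further: ALL cell lines in 384-well plates, five doses spanning 10,000-fold, each plate scaled between vehicle and 100 µmol/L benzalkonium chloride controls, sDSS an adapted area-under-curve metric.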

SMILES	selective drug sensitivity score (DND-41)	selective drug sensitivity score (LC4-1)	selective drug sensitivity score (P12-ICHIKAWA)	selective drug sensitivity score (NALM-16)	selective drug sensitivity score (HAL-01)	selective drug sensitivity score (RCH-ACV)	selective drug sensitivity score (MOLT-4)	selective drug sensitivity score (RPMI-8402)	selective drug sensitivity score (COG-LL-332h)	selective drug sensitivity score (SEM cells)	selective drug sensitivity score (NALL-1)	selective drug sensitivity score (CCRF-CEM)	selective drug sensitivity score (JURKAT)	selective drug sensitivity score (TMD5)	selective drug sensitivity score (COG-LL-402h)	selective drug sensitivity score (KASUMI-9)	selective drug sensitivity score (ALL-SIL)	selective drug sensitivity score (COG-LL-394h)	selective drug sensitivity score (MHH-CALL-2)	selective drug sensitivity score (CCRF-HSB2)
C[C@@H]1COCCN1c1cc(C2([S@](C)(=N)=O)CC2)nc(-c2cc[nH]c3nccc2-3)n1 [AZD6738] (top concentration 25000 nM)	8.58	8.48	9.98	0.68	9.58	15.9	8.78	8.98	8.08	17.2	7.68	10.8	3.88	5.88	7.68	8.38	8.88	-2.72	13.2	4.58
NC1(C(=O)N[C@@H](CCO)c2ccc(Cl)cc2)CCN(c2ncnc3[nH]ccc23)CC1 [AZD-5363] (top concentration 10000 nM)	-1.88	1.22	3.52	0.12	4.02	10.9	7.42	3.52	4.02	4.82	4.72	9.32	6.72	6.62	5.62	3.52	3.52	-1.08	7.82	4.02
C[C@@H](Nc1cc(F)cc(F)c1)c1cc(C(=O)N(C)C)cc2c(=O)cc(N3CCOCC3)oc12 [AZD-8186] (top concentration 1000 nM)	-0.26	-0.26	-0.26	-0.06	8.14	14.9	-0.06	0.44	-0.26	2.44	2.34	-0.26	-0.26	-0.26	5.14	6.04	-0.26	-0.26	4.64	1.64
COc1cccc2c1C(=O)c1c(O)c3c(c(O)c1C2=O)C[C@@](O)(/C(CO)=N/NC(=O)CCCCCN1C(=O)C=CC1=O)C[C@@H]3O[C@H]1C[C@H](N)[C@H](O)[C@H](C)O1 [Aldoxorubicin] (top concentration 1000 nM)	1.84	6.34	5.04	-0.46	0.34	11.7	11.8	5.34	12.1	3.64	-1.86	7.24	1.64	0.34	14.3	8.64	0.74	8.24	9.84	14.8
COc1cc(Nc2ncc3c(n2)-c2ccc(Cl)cc2C(c2c(F)cccc2OC)=NC3)ccc1C(=O)O [Alisertib] (top concentration 10000 nM)	0.88	25.5	22.6	0.28	17.8	24.3	21.8	10.2	24.8	26.8	16.2	21.5	11.3	11	16.1	25	17.2	2.28	14.9	26.4
Cc1nc(NC(=O)N2CCC[C@H]2C(N)=O)sc1-c1ccnc(C(C)(C)C(F)(F)F)c1 [Alpelisib] (top concentration 2500 nM)	-0.82	0.98	-0.32	1.38	0.78	8.98	0.88	-0.02	0.18	-0.82	-0.82	0.48	-0.82	-0.82	4.18	1.18	6.28	0.78	1.68	1.68
CCN(CC)CCNC(=O)c1c(C)[nH]c(/C=C2\C(=O)Nc3ccc(-c4csc(-c5ccccc5)n4)cc32)c1C [Amcasertib] (top concentration 10000 nM)	6.8	0.9	0	-2.1	7.4	3.3	-2.4	-1.5	7.2	3	5.2	6.7	-2.2	-1.7	-3.2	-0.2	3.6	1.3	4.9	3.1
COc1c(C)cnc(Cn2cnc3c(Cl)nc(N)nc32)c1C [BIIB021] (top concentration 10000 nM)	8.58	0.98	2.28	2.38	3.98	9.58	11.8	0.68	8.98	7.38	1.08	7.88	0.48	1.58	5.78	-1.22	5.88	-4.02	2.48	10.8
O=C(/C=C/c1cccc(S(=O)(=O)Nc2ccccc2)c1)NO [Belinostat] (top concentration 10000 nM)	7.2	9.7	8.6	2.5	5.6	14.3	7.6	7.3	7.9	7.6	2.4	8.7	7.6	6.3	12.6	8.9	8.9	2.1	11	10.2
